Data as given in PubChem BioAssay AID602341 (The Scripps Research Institute Molecular Screening Center, 2012).
Activity calls are given as the source filed them. How the calls were made is not given here.

Legend:
Experiment in all cases: serine hydrolase selectivity, ABHD6 analysis, late-stage follow-up, selectivity assay for DAGLb inhibitor project, ABPP-SILAC, LC-MS, mouse cells (AID 602341)
Dpp7 = settings: serine hydrolases, stronger effect = lower value
Iah1 = settings: serine hydrolases, stronger effect = lower value
[1] = biological target: Palmitoyl-protein thioesterase ABHD10, mitochondrial (Mus musculus) (UniProt Q6PE15); settings: serine hydrolases, stronger effect = lower value
Serhl = settings: serine hydrolases, stronger effect = lower value
Bat5 = settings: serine hydrolases, stronger effect = lower value
Lyplal1 = settings: serine hydrolases, stronger effect = lower value
Fam108c = settings: serine hydrolases, stronger effect = lower value
Lypla2 = settings: serine hydrolases, stronger effect = lower value
Lypla3 = settings: serine hydrolases, stronger effect = lower value
Pafah1b2 = settings: serine hydrolases, stronger effect = lower value
Abhd11 = settings: serine hydrolases, stronger effect = lower value
Pnpla8 = settings: serine hydrolases, stronger effect = lower value
Faah = settings: serine hydrolases, stronger effect = lower value
[2] = biological target: Diacylglycerol lipase-beta (Mus musculus) (UniProt Q91WC9); settings: serine hydrolases, Daglb, stronger effect = lower value
Fam108b = settings: serine hydrolases, stronger effect = lower value
Lactb = settings: serine hydrolases, stronger effect = lower value
D230012E17Rik = settings: serine hydrolases, stronger effect = lower value
Abhd12 = settings: serine hydrolases, stronger effect = lower value
Pme1 = settings: serine hydrolases, stronger effect = lower value
Kiaa1363 = settings: serine hydrolases, stronger effect = lower value
Ppt2 = settings: serine hydrolases, stronger effect = lower value
Qrsl1 = settings: serine hydrolases, stronger effect = lower value
Ctsa = settings: serine hydrolases, stronger effect = lower value
Pnpla6 = settings: serine hydrolases, stronger effect = lower value
Dpp9 = settings: serine hydrolases, stronger effect = lower value
Fam108a = settings: serine hydrolases, stronger effect = lower value
Esd = settings: serine hydrolases, stronger effect = lower value
[3] = biological target: Monoacylglycerol lipase ABHD6 (Mus musculus) (UniProt Q8R2Y0); settings: serine hydrolases, stronger effect = lower value
Lonp1 = settings: serine hydrolases, stronger effect = lower value
Rbbp9 = settings: serine hydrolases, stronger effect = lower value
Apeh = settings: serine hydrolases, stronger effect = lower value
Pnpla7 = settings: serine hydrolases, stronger effect = lower value
Prcp = settings: serine hydrolases, stronger effect = lower value
Prepl = settings: serine hydrolases, stronger effect = lower value
[4] = biological target: Prolyl endopeptidase (Mus musculus) (UniProt Q9QUR6); settings: serine hydrolases, Prep, stronger effect = lower value
Dpp8 = settings: serine hydrolases, stronger effect = lower value
Lipe = settings: serine hydrolases, stronger effect = lower value
Pla2g6 = settings: serine hydrolases, stronger effect = lower value
Pafah1b3 = settings: serine hydrolases, stronger effect = lower value
Htra2 = settings: serine hydrolases, stronger effect = lower value
Ache = settings: serine hydrolases, stronger effect = lower value
[5] = biological target: Platelet-activating factor acetylhydrolase 2, cytoplasmic (Mus musculus) (UniProt Q8VDG7); settings: serine hydrolases, Pafah2, stronger effect = lower value
Parl = settings: serine hydrolases, stronger effect = lower value
Fasn = settings: serine hydrolases, stronger effect = lower value
Acot2 = settings: serine hydrolases, stronger effect = lower value
Tpp2 = settings: serine hydrolases, stronger effect = lower value
[6] = biological target: Acyl-protein thioesterase 1 (Mus musculus) (UniProt P97823); settings: serine hydrolases, Lypla1, stronger effect = lower value
Sequence of Acyl-protein thioesterase 1 (Mus musculus) (P97823 whole entry, looked up): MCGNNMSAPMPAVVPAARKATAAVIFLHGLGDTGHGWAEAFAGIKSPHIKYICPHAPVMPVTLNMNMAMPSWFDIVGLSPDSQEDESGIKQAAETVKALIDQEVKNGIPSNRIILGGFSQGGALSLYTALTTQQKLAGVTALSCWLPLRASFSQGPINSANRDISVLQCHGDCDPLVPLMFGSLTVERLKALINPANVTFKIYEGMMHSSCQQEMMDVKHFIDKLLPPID

Sequence of Diacylglycerol lipase-beta (Mus musculus) (Q91WC9 whole entry, looked up): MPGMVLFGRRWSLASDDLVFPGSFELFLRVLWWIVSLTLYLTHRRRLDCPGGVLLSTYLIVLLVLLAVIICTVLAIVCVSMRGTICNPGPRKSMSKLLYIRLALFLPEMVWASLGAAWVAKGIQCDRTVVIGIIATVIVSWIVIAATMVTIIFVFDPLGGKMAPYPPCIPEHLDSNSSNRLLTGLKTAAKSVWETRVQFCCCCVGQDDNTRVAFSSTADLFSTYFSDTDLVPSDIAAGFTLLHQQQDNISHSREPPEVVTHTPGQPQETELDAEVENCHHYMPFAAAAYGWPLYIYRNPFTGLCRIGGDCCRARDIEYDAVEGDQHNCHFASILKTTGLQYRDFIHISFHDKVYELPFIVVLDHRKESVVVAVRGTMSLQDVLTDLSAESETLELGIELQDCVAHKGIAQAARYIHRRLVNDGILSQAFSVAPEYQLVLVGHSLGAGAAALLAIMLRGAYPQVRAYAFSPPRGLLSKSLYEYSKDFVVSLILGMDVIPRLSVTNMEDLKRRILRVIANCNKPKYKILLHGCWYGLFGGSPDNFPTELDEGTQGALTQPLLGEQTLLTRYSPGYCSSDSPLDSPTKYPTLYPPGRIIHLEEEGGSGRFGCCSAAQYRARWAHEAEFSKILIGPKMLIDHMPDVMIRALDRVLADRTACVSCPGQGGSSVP
Sequence of Prolyl endopeptidase (Mus musculus) (Q9QUR6 whole entry, looked up): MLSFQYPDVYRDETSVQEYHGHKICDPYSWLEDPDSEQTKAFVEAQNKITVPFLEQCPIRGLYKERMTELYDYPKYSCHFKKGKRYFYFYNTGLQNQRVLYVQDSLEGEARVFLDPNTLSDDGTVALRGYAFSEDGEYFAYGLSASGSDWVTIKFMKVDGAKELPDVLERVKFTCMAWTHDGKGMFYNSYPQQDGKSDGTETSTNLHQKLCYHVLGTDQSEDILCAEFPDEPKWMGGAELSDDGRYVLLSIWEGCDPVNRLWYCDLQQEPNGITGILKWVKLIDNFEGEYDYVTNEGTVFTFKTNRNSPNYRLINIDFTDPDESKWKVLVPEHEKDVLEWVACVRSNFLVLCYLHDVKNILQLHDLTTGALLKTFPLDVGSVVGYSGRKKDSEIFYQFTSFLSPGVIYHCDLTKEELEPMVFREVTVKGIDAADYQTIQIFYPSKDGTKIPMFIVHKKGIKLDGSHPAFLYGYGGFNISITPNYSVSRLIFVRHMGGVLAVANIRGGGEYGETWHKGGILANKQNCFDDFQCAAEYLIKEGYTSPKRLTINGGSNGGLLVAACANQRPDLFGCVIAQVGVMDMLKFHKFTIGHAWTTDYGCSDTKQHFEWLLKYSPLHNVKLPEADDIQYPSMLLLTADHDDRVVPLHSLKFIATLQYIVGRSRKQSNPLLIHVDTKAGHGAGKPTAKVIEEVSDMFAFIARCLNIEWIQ
Sequence of Platelet-activating factor acetylhydrolase 2, cytoplasmic (Mus musculus) (Q8VDG7 whole entry, looked up): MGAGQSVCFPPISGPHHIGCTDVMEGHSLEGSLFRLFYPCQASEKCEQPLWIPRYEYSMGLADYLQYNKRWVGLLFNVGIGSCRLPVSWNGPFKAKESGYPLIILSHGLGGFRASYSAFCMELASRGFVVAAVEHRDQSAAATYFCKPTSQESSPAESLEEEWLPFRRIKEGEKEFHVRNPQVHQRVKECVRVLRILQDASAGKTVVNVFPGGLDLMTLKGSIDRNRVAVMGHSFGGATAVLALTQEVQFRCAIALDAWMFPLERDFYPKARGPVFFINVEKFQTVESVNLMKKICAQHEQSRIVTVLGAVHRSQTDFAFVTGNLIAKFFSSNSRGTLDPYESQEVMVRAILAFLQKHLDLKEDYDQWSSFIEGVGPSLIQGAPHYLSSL
Sequence of Monoacylglycerol lipase ABHD6 (Mus musculus) (Q8R2Y0 whole entry, looked up): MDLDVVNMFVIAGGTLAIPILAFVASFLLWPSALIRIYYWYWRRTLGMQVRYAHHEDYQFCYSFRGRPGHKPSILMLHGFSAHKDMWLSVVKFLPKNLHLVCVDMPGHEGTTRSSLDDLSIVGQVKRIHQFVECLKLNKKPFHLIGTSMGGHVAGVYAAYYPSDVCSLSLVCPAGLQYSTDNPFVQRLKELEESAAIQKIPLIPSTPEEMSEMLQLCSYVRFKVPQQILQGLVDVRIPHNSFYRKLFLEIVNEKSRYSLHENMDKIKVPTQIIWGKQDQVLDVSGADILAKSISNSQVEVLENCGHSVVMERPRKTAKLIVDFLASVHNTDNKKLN
Sequence of Palmitoyl-protein thioesterase ABHD10, mitochondrial (Mus musculus) (Q6PE15 whole entry, looked up): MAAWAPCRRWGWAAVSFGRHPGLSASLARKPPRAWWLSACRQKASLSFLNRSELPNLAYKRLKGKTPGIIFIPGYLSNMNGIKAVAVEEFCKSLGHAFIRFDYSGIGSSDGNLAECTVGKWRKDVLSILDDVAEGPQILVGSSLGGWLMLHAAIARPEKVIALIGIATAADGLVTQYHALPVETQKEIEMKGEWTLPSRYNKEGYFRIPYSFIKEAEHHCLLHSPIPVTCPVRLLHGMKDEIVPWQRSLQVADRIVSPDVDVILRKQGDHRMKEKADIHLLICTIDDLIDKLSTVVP

## COc1ccc(-c2ccc(-c3cn(C(=O)N4CCCCC4c4ccccc4)nn3)cc2)cc1 (configuration not stated)
Dpp7
  SILAC ratio (inhibitor/DMSO): 1.29 (inactive)
Iah1
  SILAC ratio (inhibitor/DMSO): 1.15 (inactive)
[1]
  SILAC ratio (inhibitor/DMSO): 1.17 (inactive)
Serhl
  SILAC ratio (inhibitor/DMSO): 1.2 (inactive)
Bat5
  SILAC ratio (inhibitor/DMSO): 1.27 (inactive)
Lyplal1
  SILAC ratio (inhibitor/DMSO): 1.61 (inactive)
Fam108c
  SILAC ratio (inhibitor/DMSO): 1.13 (inactive)
Lypla2
  SILAC ratio (inhibitor/DMSO): 1.13 (inactive)
Lypla3
  SILAC ratio (inhibitor/DMSO): 1.1 (inactive)
Pafah1b2
  SILAC ratio (inhibitor/DMSO): 1.19 (inactive)
Abhd11
  SILAC ratio (inhibitor/DMSO): 1.5 (inactive)
Pnpla8
  SILAC ratio (inhibitor/DMSO): 1.33 (inactive)
Faah
  SILAC ratio (inhibitor/DMSO): 0.95 (inactive)
[2]
  SILAC ratio (inhibitor/DMSO): 1.05 (inactive)
Fam108b
  SILAC ratio (inhibitor/DMSO): 1.15 (inactive)
Lactb
  SILAC ratio (inhibitor/DMSO): 1.05 (inactive)
D230012E17Rik
  SILAC ratio (inhibitor/DMSO): 1.13 (inactive)
Abhd12
  SILAC ratio (inhibitor/DMSO): 1.3 (inactive)
Pme1
  SILAC ratio (inhibitor/DMSO): 1.29 (inactive)
Kiaa1363
  SILAC ratio (inhibitor/DMSO): 1.39 (inactive)
Ppt2
  SILAC ratio (inhibitor/DMSO): 1.17 (inactive)
Qrsl1
  SILAC ratio (inhibitor/DMSO): 1.47 (inactive)
Ctsa
  SILAC ratio (inhibitor/DMSO): 1.46 (inactive)
Pnpla6
  SILAC ratio (inhibitor/DMSO): 1.4 (inactive)
Dpp9
  SILAC ratio (inhibitor/DMSO): 1.06 (inactive)
Fam108a
  SILAC ratio (inhibitor/DMSO): 1.33 (inactive)
Esd
  SILAC ratio (inhibitor/DMSO): 1.34 (inactive)
[3]
  SILAC ratio (inhibitor/DMSO): 0.05
Lonp1
  SILAC ratio (inhibitor/DMSO): 1.73 (inactive)
Rbbp9
  SILAC ratio (inhibitor/DMSO): 1.4 (inactive)
Apeh
  SILAC ratio (inhibitor/DMSO): 1.13 (inactive)
Pnpla7
  SILAC ratio (inhibitor/DMSO): 1.65 (inactive)
Prcp
  SILAC ratio (inhibitor/DMSO): 0.86 (inactive)
Prepl
  SILAC ratio (inhibitor/DMSO): 1 (inactive)
[4]
  SILAC ratio (inhibitor/DMSO): 1.07 (inactive)
Dpp8
  SILAC ratio (inhibitor/DMSO): 1.17 (inactive)
Lipe
  SILAC ratio (inhibitor/DMSO): 1.21 (inactive)
Pla2g6
  SILAC ratio (inhibitor/DMSO): 1.47 (inactive)
Pafah1b3
  SILAC ratio (inhibitor/DMSO): 1.15 (inactive)
Htra2
  SILAC ratio (inhibitor/DMSO): 1.29 (inactive)
Ache
  SILAC ratio (inhibitor/DMSO): 1.23 (inactive)
[5]
  SILAC ratio (inhibitor/DMSO): 1.1 (inactive)
Parl
  SILAC ratio (inhibitor/DMSO): 1.4 (inactive)
Fasn
  SILAC ratio (inhibitor/DMSO): 1.19 (inactive)
Acot2
  SILAC ratio (inhibitor/DMSO): 1.47 (inactive)
Tpp2
  SILAC ratio (inhibitor/DMSO): 1.43 (inactive)
[6]
  SILAC ratio (inhibitor/DMSO): 1.05 (inactive)
